The source made the active and inactive calls.
How the values were obtained:
[1] = biological target: Melanin-concentrating hormone receptor 1 (Homo sapiens, UniProt Q99705); assay: Late-stage fluorescence-based counterscreen for antagonists of the G-protein coupled receptor 7 (GPR7): cell-based dose response assay to identify antagonists of the melanin-concentrating hormone receptor 1 (MCHR1) Set 5.; format: functional
[2] = biological target: T1, Neuropeptides B/W receptor type 1 (Homo sapiens, UniProt P48145); assay: GPR7 antagonist potency, late-stage follow-up, cell-based, fluorescence, dose response, set 5 (AID 588566); format: functional
T1 sequence (P48145 whole entry): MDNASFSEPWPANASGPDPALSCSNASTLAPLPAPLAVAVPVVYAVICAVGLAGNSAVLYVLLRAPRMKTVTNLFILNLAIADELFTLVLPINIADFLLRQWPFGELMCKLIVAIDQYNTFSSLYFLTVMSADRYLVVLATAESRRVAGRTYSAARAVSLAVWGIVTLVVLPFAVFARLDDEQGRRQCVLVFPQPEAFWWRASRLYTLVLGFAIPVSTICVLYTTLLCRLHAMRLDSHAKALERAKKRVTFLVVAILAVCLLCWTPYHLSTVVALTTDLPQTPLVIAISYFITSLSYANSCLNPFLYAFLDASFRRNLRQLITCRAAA

[3] = biological target: T2, High affinity choline transporter 1 (Homo sapiens, UniProt Q9GZV3); assay: CHT inhibitors, dose response, cell-based, 10-point CRC, membrane potential dye (AID 588401); format: functional;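 also: membrane potential dye fluorescence of choline-evoked depolarization via CHT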
T2 sequence (Q9GZV3 whole entry): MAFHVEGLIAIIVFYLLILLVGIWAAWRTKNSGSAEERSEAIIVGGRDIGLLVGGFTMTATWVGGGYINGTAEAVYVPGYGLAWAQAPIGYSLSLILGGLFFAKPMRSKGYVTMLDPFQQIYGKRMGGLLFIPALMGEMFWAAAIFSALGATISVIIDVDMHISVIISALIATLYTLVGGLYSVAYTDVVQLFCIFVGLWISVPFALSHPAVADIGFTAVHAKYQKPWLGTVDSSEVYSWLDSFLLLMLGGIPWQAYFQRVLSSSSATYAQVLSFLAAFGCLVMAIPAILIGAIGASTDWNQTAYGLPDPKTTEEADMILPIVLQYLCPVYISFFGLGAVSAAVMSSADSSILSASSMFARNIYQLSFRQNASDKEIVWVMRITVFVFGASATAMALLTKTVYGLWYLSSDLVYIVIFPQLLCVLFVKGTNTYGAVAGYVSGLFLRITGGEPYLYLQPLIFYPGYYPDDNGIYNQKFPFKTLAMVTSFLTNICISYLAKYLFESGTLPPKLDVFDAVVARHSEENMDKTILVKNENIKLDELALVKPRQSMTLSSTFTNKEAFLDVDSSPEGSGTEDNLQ

[4] = biological target: T2, High affinity choline transporter 1; assay: CHT inhibitors, dose response, cell-based, 5-point CRC, membrane potential dye (AID 504840); format: functional
[5] = biological target: T3, DNA repair protein RAD52 homolog (Homo sapiens, UniProt P43351); format: functional, biochemical
T3 sequence (P43351 whole entry): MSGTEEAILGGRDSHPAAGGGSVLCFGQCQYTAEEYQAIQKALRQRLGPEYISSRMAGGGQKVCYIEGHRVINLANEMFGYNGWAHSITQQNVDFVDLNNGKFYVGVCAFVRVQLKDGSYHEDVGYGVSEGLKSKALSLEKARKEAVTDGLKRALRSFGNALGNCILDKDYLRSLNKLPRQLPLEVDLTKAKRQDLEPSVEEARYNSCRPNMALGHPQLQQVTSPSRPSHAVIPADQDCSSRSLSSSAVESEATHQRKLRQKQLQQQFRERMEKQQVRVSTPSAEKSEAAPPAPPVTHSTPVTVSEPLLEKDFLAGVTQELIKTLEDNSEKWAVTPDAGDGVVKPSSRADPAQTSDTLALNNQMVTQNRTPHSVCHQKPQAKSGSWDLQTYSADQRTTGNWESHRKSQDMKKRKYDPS

[6] = NIH-3T3 fibroblast cytotoxicity, dose response, cytotoxicity control, cell-based, fluorescence, Alamar Blue, secondary assay (AID 2327); format: functional;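 also: NIH-3T3 mouse fibroblasts cultured with fluconazole at 8 µg/mL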
[7] = C. albicans growth with fluconazole, confirmation, fluorescence, retest (AID 2467); format: functional, cell-based
[8] = biological target: Multidrug resistance protein CDR2 (Candida albicans (strain SC5314 / ATCC MYA-2876) (Yeast), UniProt P78595); assay: CaCDR2 efflux pump inhibitors in yeast, dose response, S. cerevisiae AD1-8u, singleplex, Cherry Pick1 hits (AID 588604); format: functional
Multidrug resistance protein CDR2, sequence (P78595 whole entry): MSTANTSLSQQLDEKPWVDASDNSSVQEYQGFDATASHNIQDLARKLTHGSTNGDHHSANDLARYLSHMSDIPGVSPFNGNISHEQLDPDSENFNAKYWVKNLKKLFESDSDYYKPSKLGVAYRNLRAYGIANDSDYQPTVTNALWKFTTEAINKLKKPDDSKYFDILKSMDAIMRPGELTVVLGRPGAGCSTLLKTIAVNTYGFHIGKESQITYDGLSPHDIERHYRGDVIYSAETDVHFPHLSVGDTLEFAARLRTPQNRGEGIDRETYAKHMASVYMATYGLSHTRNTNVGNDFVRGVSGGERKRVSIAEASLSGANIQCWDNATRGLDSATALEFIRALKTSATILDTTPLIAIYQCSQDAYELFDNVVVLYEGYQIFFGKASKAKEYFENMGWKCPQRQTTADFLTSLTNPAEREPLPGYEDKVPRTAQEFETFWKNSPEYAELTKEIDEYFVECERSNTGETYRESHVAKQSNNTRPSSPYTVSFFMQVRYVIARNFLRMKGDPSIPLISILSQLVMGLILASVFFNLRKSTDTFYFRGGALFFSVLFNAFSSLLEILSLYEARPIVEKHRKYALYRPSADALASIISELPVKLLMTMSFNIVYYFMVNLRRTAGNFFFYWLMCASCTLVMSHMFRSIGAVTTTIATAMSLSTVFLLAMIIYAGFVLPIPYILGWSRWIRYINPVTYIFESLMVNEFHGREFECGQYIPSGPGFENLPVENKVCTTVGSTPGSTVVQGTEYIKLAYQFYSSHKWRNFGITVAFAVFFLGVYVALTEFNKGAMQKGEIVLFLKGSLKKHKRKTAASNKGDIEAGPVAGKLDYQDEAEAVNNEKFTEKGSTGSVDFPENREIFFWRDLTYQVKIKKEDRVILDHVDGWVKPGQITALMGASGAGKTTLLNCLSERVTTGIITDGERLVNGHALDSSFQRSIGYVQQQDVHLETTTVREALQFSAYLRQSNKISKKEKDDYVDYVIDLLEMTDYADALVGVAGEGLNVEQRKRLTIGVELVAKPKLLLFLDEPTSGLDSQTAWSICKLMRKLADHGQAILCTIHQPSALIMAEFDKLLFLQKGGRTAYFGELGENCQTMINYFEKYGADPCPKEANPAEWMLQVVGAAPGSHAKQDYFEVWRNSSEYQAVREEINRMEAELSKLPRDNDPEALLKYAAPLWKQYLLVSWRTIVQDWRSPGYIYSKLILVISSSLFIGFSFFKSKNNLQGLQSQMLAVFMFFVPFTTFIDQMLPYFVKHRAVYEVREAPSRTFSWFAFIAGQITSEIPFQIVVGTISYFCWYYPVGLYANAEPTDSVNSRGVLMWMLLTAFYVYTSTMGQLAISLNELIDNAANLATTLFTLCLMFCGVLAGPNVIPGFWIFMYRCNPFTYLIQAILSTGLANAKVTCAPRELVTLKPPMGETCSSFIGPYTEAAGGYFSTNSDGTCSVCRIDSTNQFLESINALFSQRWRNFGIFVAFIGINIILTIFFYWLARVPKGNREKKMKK

Melanin-concentrating hormone receptor 1, sequence (Q99705 whole entry): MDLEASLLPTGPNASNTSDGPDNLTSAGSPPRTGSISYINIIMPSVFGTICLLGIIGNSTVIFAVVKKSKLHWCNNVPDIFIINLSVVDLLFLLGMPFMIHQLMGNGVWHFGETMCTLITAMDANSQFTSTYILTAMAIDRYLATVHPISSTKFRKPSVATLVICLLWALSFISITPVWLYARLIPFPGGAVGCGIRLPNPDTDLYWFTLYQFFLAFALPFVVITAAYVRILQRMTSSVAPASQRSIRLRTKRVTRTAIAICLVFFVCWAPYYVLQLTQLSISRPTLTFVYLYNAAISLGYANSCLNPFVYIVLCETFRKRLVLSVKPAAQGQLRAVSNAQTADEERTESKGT

For `CCOC(=O)C(C(N)=O)c1c(Cl)cnn(Cc2cccc3ccccc23)c1=O` (stereo not drawn), the IC50 [1] was > 20 µM (inactive) and the IC50 [2] was 11.8 µM (inactive).
With `COc1ccc(C(=O)NCCCSC)cc1OC1CCN(C(C)C)CC1` the IC50 [3] was 4.74 µM (active) and the IC50 [4] was 8.13 µM (active).
With `Cc1c(CCOC(=O)CC23CC4CC(CC(C)(C4)C2)C3)sc[n+]1Cc1ccc([N+](=O)[O-])cc1` the AC50 [5] was 15.6 µM (active), the EC50 [6] was > 150 µM (inactive) and the EC50 [7] was > 38 µM (not active). For the same molecule, the EC50 [8] was 10.9 µM (active).
